ChEMBL document CHEMBL1143846, “Clinical pharmacodynamics of meropenem in patients with lower respiratory tract infections” (Antimicrob Agents Chemother, 2007)
In brackets after ≈: the same amount, converted by molar mass.

Assays:
[1] = tested on: Streptococcus pneumoniae; assay: Antimicrobial activity against Streptococcus pneumoniae; assay type: functional
[2] = tested on: Staphylococcus aureus; assay: Antimicrobial activity against methicillin-susceptible Staphylococcus aureus; assay type: functional
[3] = tested on: Haemophilus influenzae; assay: Antimicrobial activity against Haemophilus influenzae; assay type: functional
[4] = tested on: Klebsiella pneumoniae; assay: Antimicrobial activity against Klebsiella pneumoniae; assay type: functional
[5] = tested on: Pseudomonas aeruginosa; assay: Antimicrobial activity against Pseudomonas aeruginosa; assay type: functional
[6] = species on record: Homo sapiens; assay: fCmax in patient with lower respiratory tract infection; assay type: ADME, organism-based; conditions: in vivo
[7] = species on record: Homo sapiens; assay: fCmin in patient with lower respiratory tract infection; assay type: ADME, organism-based; conditions: in vivo
[8] = species on record: Homo sapiens; assay: fAUC in patient with lower respiratory tract infection; assay type: ADME, organism-based; conditions: in vivo
[9] = species on record: Homo sapiens; assay: ft>MIC in patient with lower respiratory tract infection; assay type: ADME, organism-based; conditions: in vivo
[10] = Ratio of fCmax to MIC in patient with lower respiratory tract infection; assay type: ADME; conditions: human
[11] = Ratio of fCmin to MIC in patient with lower respiratory tract infection; assay type: ADME; conditions: human
[12] = Ratio of fAUC to MIC in patient with lower respiratory tract infection; assay type: ADME; conditions: human

- MIC [1]: 0.06 µg/mL (≈ 0.156 µM)
- MIC [2]: 0.06 µg/mL (≈ 0.156 µM)
- MIC [3]: 0.06 µg/mL (≈ 0.156 µM)
- MIC [4]: 0.06 µg/mL (≈ 0.156 µM)
- MIC [5]: 0.06 µg/mL (≈ 0.156 µM)
- fCmax [6]: 32.27 µg/mL
- fCmin [7]: 0.91 µg/mL
- fAUC [8]: 157.43 µg·h/mL
- fT>MIC [9]: 91%
- Ratio [10]: 1427.66
- Ratio [11]: 34.24
- Ratio [12]: 6683.38
Structure (SMILES): C[C@@H](O)[C@H]1C(=O)N2C(C(=O)O)=C(S[C@@H]3CN[C@H](C(=O)N(C)C)C3)[C@H](C)[C@H]12 [MEROPENEM]
